From US20250295618A1, “PARASYMPATHETIC NERVE ACTIVATION AGENT AND PARASYMPATHETIC NERVE ACTIVATION COMPOSITION” (MARUZEN PHARMACEUTICALS CO., LTD., priority 2022, published 2025)

What was measured:
Type in all cases: in vivo, male Whistar rats
[1] = test system: parasympathetic nerve (vagus nerve) innervating the pancreas; assay: Test Example 1: neural activity of distal branches of vagus (parasympathetic) nerve for the pancreas (PVNA) after intragastric administration; conditions: urethane-anesthetized rats, measured for 60 minutes, percentage of value at 0 minutes (100%), FIG. 2
Experimental: (§1) The effect of the intragastric administration of the compound represented by Structural Formula (1) on the activity of the parasympathetic nerve innervating the stomach, the pancreas, or the intestine was tested in the following manner. For the experiment, male Whistar rats (approximately 9 weeks old) each having a body weight of approximately 300 g were kept in a 24° C. thermostatic animal room for 1 week or longer with a 12-hour light-dark cycle (lighting from 8:00 to 20:00). On the day of the experiment, the rats were fasted for 3 hours, followed by anesthetizing with urethane. A cannula for intragastric administration was inserted into each of the rats, and then distal branches of the parasympathetic nerve (vagus nerve) innervating the stomach, the pancreas, or the intestines (small intestine and large intestine) were lifted with a silver electrode, and the electrical activity thereof was measured. […] In addition, as a control, water serving as a solvent was intragastrically administered using the cannula at a dose of 0.5 mL/300 g of body weight, and the change in the neural activity of the distal branches of the above parasympathetic nerves was measured electrophysiologically for 60 minutes. […]

[2] = test system: parasympathetic nerve (vagus nerve) innervating the intestines (small intestine and large intestine); assay: Test Example 1: neural activity of distal branches of vagus (parasympathetic) nerve for the intestine (IVNA) after intragastric administration; conditions: urethane-anesthetized rats, measured for 60 minutes, percentage of value at 0 minutes (100%), FIG. 3
Experimental: as §1

[3] = test system: parasympathetic nerve (vagus nerve) innervating the stomach; assay: Test Example 1: neural activity of distal branches of vagus (parasympathetic) nerve for the stomach (GVNA) after intragastric administration; conditions: urethane-anesthetized rats; intragastric 0.015 mg/0.5 mL/300 g of body weight; measured for 60 minutes; percentage of value at 0 minutes (100%); FIG. 1
Experimental: as §1

[4] = intragastric 0.00015 mg/0.5 mL/300 g of body weight
[5] = intragastric 0.0015 mg/0.5 mL/300 g of body weight

Compound: COc1cc(CCC(=O)O)ccc1O [3-(4-hydroxy-3-methoxyphenyl)propionic acid]
- pancreatic vagal nerve activity (PVNA) value compared with the water group [1, 4]: PVNA value higher than the PVNA value of the group to which water serving as the solvent was administered
- pancreatic vagal nerve activity (PVNA) value compared with the water group [1, 5]: PVNA value higher than the PVNA value of the group to which water serving as the solvent was administered
- intestinal vagal nerve activity (IVNA) value compared with the water group [2, 4]: IVNA values higher than the IVNA value of the group to which water serving as the solvent was administered
- intestinal vagal nerve activity (IVNA) value compared with the water group [2, 5]: IVNA values higher than the IVNA value of the group to which water serving as the solvent was administered
- gastric vagal nerve activity (GVNA) value compared with the water group [3]: GVNA value higher than the GVNA value of the group to which water serving as the solvent was administered
